In patent US20230398051A1, “Anti-Microbial Skin-Care Composition Comprising Beta-Glucan and Natural Oil” (LANTMÄNNEN OATS AB, priority 2020, published 2023):

Legend:
bacteria = details: cited from earlier work
P. aeruginosa = assay: Log reduction according to EN 1276; type: cell-based
E. hirae = assay: Log reduction according to EN 1276; type: cell-based
S. aureus = assay: Log reduction according to EN 1276; type: cell-based
Description: (§1) As shown in the Examples herein, the skin-care composition is active against bacteria and due to its content of hydrogen peroxide and lactate/lactic it is contemplated to be active against viruses as well, i.e. functioning as an anti-microbial composition. It has been shown that a synergistic effect between hydrogen peroxide and lactic acid in bacteria such as E. coli, P. aeruginosa, E. hirae, S. aureus, L. monocytogenes and S. typhimurium, see the following tables: […]

E. coli = assay: Log reduction according to EN 1276; type: cell-based
Description: as §1

S. typhimurium = assay: Log reduction according to EN 1276; type: cell-based
L. monocytogenes = assay: Log reduction according to EN 1276; type: cell-based
spores = details: cited from earlier work
bacteria, viruses = details: 0.5% hydrogen peroxide; cited from earlier work

For `CC(O)C(=O)O` (stereo not shown) [lactic acid], the “concentration regarded as bactericidal” value (bacteria) is given as at least 0.25 % w/w.

For `OO` [3% H2O2, hydrogen peroxide], the “Log reduction according to EN 1276” value (P. aeruginosa) was over 5, the “Log reduction according to EN 1276” value (E. hirae) was 0.1 and the “Log reduction according to EN 1276” value (S. aureus) was under 1. For the same compound, the “Log reduction according to EN 1276” value (E. coli) was over 5.

With `CC(O)C(=O)O` (stereo not shown) [1% LA, pH 3, lactic acid] the “Log reduction according to EN 1276” value (S. typhimurium) was over 5 and the “Log reduction according to EN 1276” value (L. monocytogenes) was 2.2.

In the case of `CC(O)C(=O)O` (stereo not shown) [1% LA, lactic acid], the “Log reduction according to EN 1276” value (S. typhimurium) is reported as over 5 and the “Log reduction according to EN 1276” value (L. monocytogenes) is reported as 3.8.

In the case of `OO` [hydrogen peroxide], the “concentration that will work against most spores” value (spores) is listed as 3% and the “time in which bactericidal and virucidal activity was demonstrated” value (bacteria, viruses) is listed as 1 min.

In the case of `OO` [1% H2O2, hydrogen peroxide], the “Log reduction according to EN 1276” value (S. typhimurium) is reported as 0.5 and the “Log reduction according to EN 1276” value (L. monocytogenes) is reported as 0.6.
